Values of other authors as cited in patent US20200179295A1, “MRI-DETECTABLE MULTILAYER MICROCAPSULES FOR ULTRASOUND-TRIGGERED DELIVERY OF PHARMACOLOGICALLY ACTIVE AGENTS” (THE UAB RESEARCH FOUNDATION, priority 2018, published 2020).

Details: 1.5 T; Rohrer et al. 2005

CC(O)CN1CCN(CC(=O)[O-])CCN(CC(=O)[O-])CCN(CC(=O)[O-])CC1.[Gd+3] (stereo not shown) [ProHance, gadoteridol]
r1: 4.1 mM⁻¹ s⁻¹
